Results reported in patent publication US20060154990A1, “Use of MEK inhibitors in treating abnormal cell growth” (AGOURON PHARMACEUTICALS, INC., priority 2004, published 2006).
Several values for one entry are separate records, joined by “and”; a condition that tells them apart may be missing. Equal values may be shown once.

Legend:
[1] = molecular target: MEK1 (Homo sapiens, UniProt Q02750); test: Cascade assay with raf-1, MEK1 and ERK1 (DELFIA readout); assay type: biochemical; conditions: purified MEK1, cascade assay raf-1/MEK1/ERK1; read-out: MEK enzyme IC50
MEK1, sequence (Q02750 whole entry, species assumed): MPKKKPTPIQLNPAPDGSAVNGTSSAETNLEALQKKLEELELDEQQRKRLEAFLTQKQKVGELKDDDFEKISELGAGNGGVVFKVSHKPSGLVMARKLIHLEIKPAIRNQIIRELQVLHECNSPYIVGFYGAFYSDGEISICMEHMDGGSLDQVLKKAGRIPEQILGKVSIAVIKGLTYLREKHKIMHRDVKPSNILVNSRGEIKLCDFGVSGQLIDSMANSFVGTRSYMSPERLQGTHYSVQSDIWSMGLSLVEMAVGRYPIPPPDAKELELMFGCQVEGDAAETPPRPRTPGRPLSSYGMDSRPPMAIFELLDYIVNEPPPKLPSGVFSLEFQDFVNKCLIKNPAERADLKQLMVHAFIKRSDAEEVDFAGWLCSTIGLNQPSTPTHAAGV

[2] = system: ERK phosphorylation in tumor cells; test: ERK phosphorylation in tumor cells grown in culture with 10% serum; assay type: cell-based; conditions: tumor cells in culture, 10% serum; read-out: IC50, reducing ERK phosphorylation
[3] = system: pERK in C26 tumors; test: Tumor pERK inhibition and PK-PD in C26 tumor-bearing mice; assay type: in vivo; conditions: C26 tumor-bearing animals
[4] = Metabolites of [14C] Compound 1 in cryopreserved hepatocytes; assay type: in vitro ADME, human; conditions: [C-14] Compound 1 10 μM, 180 mins, listed as M 15
Description: (§1) Incubations were performed in hepatocytes for 3 hours and liver microsomes for 1.5 hours and were stopped with the addition of methanol. HPLC, in conjuction with ionspray 3D iontrap mass spectrometry, and simultaneous radioactive monitoring were used to detect and identify the resulting metabolites.
(§2) Metabolite identification of radiolabeled Compound 1 was performed after incubation with rat, dog, monkey and human cryopreserved hepatocytes and liver microsomes. […] Besides glucuronidation, metabolites derived from other clearance pathways are also observed. For instance, M 15 (acid cleavage product) accounts for 11% of the total radioactivity in the human chromatogram.

[5] = as above; assay type: in vitro ADME, monkey; conditions: [C-14] Compound 1 10 μM, 180 mins
Description: as §1, §2

[6] = as above; assay type: in vitro ADME, dog; conditions: [C-14] Compound 1 10 μM, 180 mins
Description: as §1, §2

[7] = as above; assay type: in vitro ADME, rat; conditions: [C-14] Compound 1 10 μM, 180 mins
Description: as §1, §2

[8] = Metabolites of [14C] Compound 1 in liver microsomes; assay type: in vitro ADME, human; conditions: [C-14] Compound 1 10 μM, 90 mins, listed as M 15
Description: as §1
(§3) This acid cleavage product is further metabolized to form hydroxylated (M 11, 16% in rat) and hydroxylated, defluorinated products (M 17, 19% in rat).

[9] = as above; assay type: in vitro ADME, monkey; conditions: [C-14] Compound 1 10 μM, 90 mins
Description: as §1, §3

[10] = as above; assay type: in vitro ADME, dog; conditions: [C-14] Compound 1 10 μM, 90 mins
Description: as §1, §3

[11] = as above; assay type: in vitro ADME, rat; conditions: [C-14] Compound 1 10 μM, 90 mins
Description: as §1, §3

[12] = Plasma pharmacokinetics after multiple oral doses in advanced cancer patients; conditions: for AUC of Compound 2 as % of the parent (median): human plasma
Description: Pharmacokinetic data are presented for the first 38 subjects.
Blood samples were collected from patients into a purple-top potassium EDTA Vacutainer tube. Following mixing with gentle inversion (8-10 times), tubes were centrifuged within 20 minutes at 1000×g for 15 minutes, to harvest plasma. Plasma samples were stored at −20° C. until analysis.
The following results are based on preliminary pharmacokinetic parameters from the 38 subjects, estimated using nominal collection times and quality-controlled, non quality-assured bioanalytical data. Pharmacokinetic parameters were determined by the non-compartmental method using WINNONLIN Professional Edition (Version 4.1). […] The maximum observed concentration (Cmax) was obtained by inspection of the concentration data. The time to reach the Cmax was the first time at which Cmax is observed and obtained by inspection of the data. The pre-dose concentration (Ctrough) was obtained by inspection of the concentration data.

[13] = system: ERK phosphorylation in colon 26 cells; test: cells; conditions: Mus musculus, Colon 26, read-out: Cellular activity IC50

| Compound | IC50 [1] [nM] | IC50 [2] [nM] | target suppression of pERK in tumors ([3]; 2 hours after 75 mg/kg IV) [%] | pERK activity in tumors ([3]; 24 hours after 75 mg/kg IV) | % ROI Human [4] | % ROI Monkey [5] [%] | % ROI Dog [6] [%] | % ROI Rat [7] [%] | % ROI Human [8] | % ROI Monkey [9] [%] | % ROI Dog [10] [%] | % ROI Rat [11] [%] | increase of AUC of Compound 2 ([12]; after 21-day multiple BID dosing of Compound 1) | AUC of Compound 2 as % of the parent (median) ([12]; multiple dosing of Compound 1) [%] | AUC of Compound 2 as % of the parent (median) ([12]; single dosing of Compound 1) | terminal plasma half-life compared with parent ([12]; patients, after oral Compound 1) | IC50 [13] [nM] |
| --- | --- | --- | --- | --- | --- | --- | --- | --- | --- | --- | --- | --- | --- | --- | --- | --- | --- |
| O=C(O)c1ccc(F)c(F)c1Nc1ccc(I)cc1F [Compound 2] | 66 | 1300 | 98 | returned to control levels | 11% and 11.07% | 1.72 | 2.46 | 4.31 | 9% and 8.73% | 5.24 | 4.12 | 1.86 | 2.0-5.0 fold | ~120 | approximately 66% | longer than that of the parent drug | – |
| O=C(NOC[C@@H](O)CO)c1ccc(F)c(F)c1Nc1ccc(I)cc1F [Compound 3] | – | – | – | – | – | – | – | – | – | – | – | – | – | – | – | – | 0.83 |
